pIC50: −log10 of the molar value.
These molecules were tested against T1, neuropilin-1 (NP-1) (Homo sapiens, UniProt O14786) (assay: 125I-VEGF-A165 binding). Conditions: assay not given; 125I-VEGF-A165 binding is the only concentration-response binding method described.
T1 construct: expressed in transfected cells; host or cells: porcine aortic endothelial cells (PAE/NP-1), hygromycin B selection
Experimental: (§1) Porcine aortic endothelial cells expressing neuropilin-1 (PAE/NP-1) were cultured in Ham's F12 medium containing 10% fetal bovine serum (FBS) and 25 μg/ml hygromycin B. PAE cells expressing KDR (PAE/KDR) were grown in Ham's F12 medium containing 10% FBS and 250 μg/ml […] G418. Human carcinoma cell lines (DU145, A549 and ACHN) were grown in RPMI 1640 medium containing 10% FBS and L-glutamine.
Confluent cells in 24-well plates were washed twice with phosphate-buffered saline (PBS). At 4° C. various concentrations of peptides or peptidomimetics diluted in binding medium (Dulbecco's modified Eagle's medium, 25 mM HEPES pH 7.3 containing 0.1% BSA) were added, followed by addition of 0.1 nM of ^125I-VEGF-A165 (1200-1800 Ci/mmol, GE Healthcare). After 2 h of incubation at 4° C., the medium was aspirated and washed 4 times with cold PBS. The cells were lysed with 0.25 M NaOH, 0.5% SDS solution, and the bound radioactivity of the lysates was measured in a γ counter. Non-specific binding was determined in the presence of 100-fold excess unlabelled VEGF-A165.

T1 sequence (O14786 22-923): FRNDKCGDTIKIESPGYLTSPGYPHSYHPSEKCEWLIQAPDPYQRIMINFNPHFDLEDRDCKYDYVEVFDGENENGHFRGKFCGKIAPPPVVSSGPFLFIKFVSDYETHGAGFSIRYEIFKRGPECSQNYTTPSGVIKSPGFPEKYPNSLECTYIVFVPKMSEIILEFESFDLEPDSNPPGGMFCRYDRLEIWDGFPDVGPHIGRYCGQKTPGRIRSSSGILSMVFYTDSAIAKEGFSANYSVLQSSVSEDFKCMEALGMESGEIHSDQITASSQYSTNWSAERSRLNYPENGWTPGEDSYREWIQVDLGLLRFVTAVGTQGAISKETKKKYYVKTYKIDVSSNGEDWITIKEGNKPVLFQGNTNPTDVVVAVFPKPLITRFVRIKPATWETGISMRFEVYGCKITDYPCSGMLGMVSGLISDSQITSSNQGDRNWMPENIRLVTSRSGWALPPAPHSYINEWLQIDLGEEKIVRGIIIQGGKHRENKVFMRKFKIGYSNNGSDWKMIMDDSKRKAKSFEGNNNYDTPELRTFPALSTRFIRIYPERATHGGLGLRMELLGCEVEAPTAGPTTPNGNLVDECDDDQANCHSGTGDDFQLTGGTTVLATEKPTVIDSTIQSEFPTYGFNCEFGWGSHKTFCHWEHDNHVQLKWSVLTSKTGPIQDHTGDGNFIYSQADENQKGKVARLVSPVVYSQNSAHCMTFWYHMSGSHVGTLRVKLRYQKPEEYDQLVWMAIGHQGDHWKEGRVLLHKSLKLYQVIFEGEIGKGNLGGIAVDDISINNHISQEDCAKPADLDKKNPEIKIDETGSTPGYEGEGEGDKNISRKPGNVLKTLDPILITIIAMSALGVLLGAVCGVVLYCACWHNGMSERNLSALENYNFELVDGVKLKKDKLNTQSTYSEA

SMILES | pIC50
N=C(N)NCCC[C@H](NC(=O)c1sccc1NS(=O)(=O)c1cccc(C#CCN)c1)C(=O)O [EG00274, (S)-2-({3-[3-(3-Amino-prop-1-ynyl)-benzenesulfonylamino]-thiophene-2-carbonyl}-amino)-5-guanidino-pentanoic acid] | > 4.70
N=C(N)NCCC[C@H](NC(=O)c1sccc1NS(=O)(=O)c1cccc(NCc2ccccn2)c1)C(=O)O [EG00283, (S)-5-Guanidino-2-[(3-{3-[(pyridin-2-ylmethyl)-amino]-benzenesulfonylamino}-thiophene-2-carbonyl)-amino]-pentanoic acid] | > 4.70
N=C(N)NC(=O)CC[C@H](NC(=O)c1sccc1NS(=O)(=O)c1ccccc1[N+](=O)[O-])C(=O)O [EG00285, (S)-5-Guanidino-2-{[3-(2-nitro-benzenesulfonylamino)-thiophene-2-carbonyl]-amino}-5-oxo-pentanoic acid] | > 4.70
CC(=O)Nc1ccc(S(=O)(=O)Nc2ccsc2C(=O)N[C@@H](CCCNC(=N)N)C(=O)O)cc1 [EG00203, (S)-2-{[3-(4-Acetylamino-benzenesulfonylamino)-thiophene-2-carbonyl]-amino}-5-guanidino-pentanoic acid] | > 4.70
N=C(N)NCCC[C@H](NC(=O)c1sccc1NS(=O)(=O)c1cc2ccccc2o1)C(=O)O [EG00287, (S)-2-{[3-(Benzofuran-2-sulfonylamino)-thiophene-2-carbonyl]-amino}-5-guanidino-pentanoic acid] | > 4.70
Cc1cc(CNc2cccc(S(=O)(=O)Nc3ccsc3C(=O)N[C@@H](CCCNC(=N)N)C(=O)O)c2)n(C)n1 [EG00316, (S)-2-[(3-{3-[(2,5-Dimethyl-2H-pyrazol-3-ylmethyl)-amino]-benzenesulfonyl-amino}-thiophene-2-carbonyl)-amino]-5-guanidino-pentanoic acid] | > 4.70
N=C(N)NCCC[C@H](NC(=O)c1sccc1NS(=O)(=O)c1cc(Br)cc2c1OCC2)C(=O)O [EG00299, (S)-2-{[3-(5-Bromo-2,3-dihydro-benzofuran-7-sulfonylamino)-thiophene-2-carbonyl]-amino}-5-guanidino-pentanoic acid] | > 4.70
Cc1ccc2nsnc2c1S(=O)(=O)Nc1ccsc1C(=O)N[C@@H](CCCNC(=N)N)C(=O)O [EG00264, (S)-2-{[3-(5-Methyl-benzo[1,2,5]thiadiazole-5-methyl-4-sulfonylamino)-thiophene-2-carbonyl]-amino}-5-guanidino-pentanoic acid] | > 4.70
N=C(N)NCCC[C@H](NC(=O)c1sccc1NS(=O)(=O)c1cccc(N)c1)C(=O)O [EG00174, (S)-2-{[3-(3-Amino-benzenesulfonylamino)-thiophene-2-carbonyl]-amino}-5-guanidino-pentanoic acid] | > 4.70
N=C(N)NCCC[C@H](NC(=O)c1sccc1NS(=O)(=O)c1ccccc1[N+](=O)[O-])C(=O)O [EG00224, (S)-5-Guanidino-2-{[3-(2-nitro-benzenesulfonylamino)-thiophene-2-carbonyl]-amino}-pentanoic acid] | > 4.70
Cc1nc(S(=O)(=O)Nc2ccsc2C(=O)N[C@@H](CCCNC(=N)N)C(=O)O)cn1C [EG00265, (S)-2-{[3-(1,2-Dimethyl-1H-imidazole-4-sulfonylamino)-thiophene-2-carbonyl]-amino}-5-guanidino-pentanoic acid] | > 4.70
N=C(N)NCCC[C@H](NC(=O)c1sccc1NS(=O)(=O)c1cc2ccccc2s1)C(=O)O [EG00291, (S)-2-{[3-(Benzo[b]thiophene-2-sulfonylamino)-thiophene-2-carbonyl]-amino}-5-guanidino-pentanoic acid] | > 4.70
N=C(N)NCCC[C@H](NC(=O)c1sccc1NS(=O)(=O)c1ccccc1N)C(=O)O [EG00225, (S)-2-{[3-(2-Amino-benzenesulfonylamino)-thiophene-2-carbonyl]-amino}-5-guanidino-pentanoic acid] | > 4.70
Cc1nn(C)c(Cl)c1CNc1cccc(S(=O)(=O)Nc2ccsc2C(=O)N[C@@H](CCCNC(=N)N)C(=O)O)c1 [EG00280, (S)-2-[(3-{3-[(5-Chloro-1,3-dimethyl-1H-pyrazol-4-ylmethyl)-amino]-benzenesulfonylamino}-thiophene-2-carbonyl)-amino]-5-guanidino-pentanoic acid] | > 4.70
N=C(N)NCCC[C@H](NC(=O)c1sccc1NS(=O)(=O)c1cccc2nonc12)C(=O)O [EG00288, (S)-2-{[3-(Benzo[1,2,5]oxadiazole-4-sulfonylamino)-thiophene-2-carbonyl]-amino}-5-guanidino-pentanoic acid] | > 4.70
N=C(N)NCCC[C@H](NC(=O)c1sccc1NS(=O)(=O)c1ccc(N)cc1)C(=O)O [EG00144, (S)-2-{[3-(4-Amino-benzenesulfonylamino)-thiophene-2-carbonyl]-amino}-5-guanidino-pentanoic acid] | > 4.70

Next, values leading:

pIC50 | SMILES
> 4.70 | Cc1noc(C)c1CNc1cccc(S(=O)(=O)Nc2ccsc2C(=O)N[C@@H](CCCNC(=N)N)C(=O)O)c1 [EG00317, (S)-2-[(3-{3-[(3,5-Dimethyl-isoxazol-4-ylmethyl)-amino]-benzenesulfonyl-amino}-thiophene-2-carbonyl)-amino]-5-guanidino-pentanoic acid]
> 4.70 | Cc1noc(C)c1-c1cc2c(c(S(=O)(=O)Nc3ccsc3C(=O)N[C@@H](CCCNC(=N)N)C(=O)O)c1)OCC2 [EG00428, (S)-2-({3-[5-(3,5-Dimethyl-isoxazol-4-yl)-2,3-dihydro-benzofuran-7-sulfonyl-amino]-thiophene-2-carbonyl}-amino)-5-guanidino-pentanoic acid]
> 4.70 | Cc1nn(-c2ccccc2)c(Cl)c1CNc1cccc(S(=O)(=O)Nc2ccsc2C(=O)N[C@@H](CCCNC(=N)N)C(=O)O)c1 [EG00318, (S)-2-[(3-{3-[(5-Chloro-3-methyl-1-phenyl-1H-pyrazol-4-ylmethyl)-amino]-benzenesulfonylamino]-thiophene-2-carbonyl)-amino]-5-guanidino-pentanoic acid]
> 4.70 | Cc1nc(CNc2cccc(S(=O)(=O)Nc3ccsc3C(=O)N[C@@H](CCCNC(=N)N)C(=O)O)c2)c(C)o1 [EG00332, (S)-2-[(3-{3-[(2,5-Dimethyl-oxazol-4-ylmethyl)-amino]-benzenesulfonylamino}-thiophene-2-carbonyl)-amino]-5-guanidino-pentanoic acid]
> 4.70 | Cc1noc(C)c1-c1cccc(S(=O)(=O)Nc2ccsc2C(=O)N[C@@H](CCCNC(=N)N)C(=O)O)c1 [EG00350, (S)-2-({3-[3-(3,5-Dimethyl-isoxazol-4-yl)-benzenesulfonylamino]-thiophene-2-carbonyl}-amino)-5-guanidino-pentanoic acid]
> 4.70 | N=C(N)NCCC[C@H](NC(=O)c1sccc1NS(=O)(=O)c1cccc(CCCN)c1)C(=O)O [EG00369, (S)-2-({3-[3-(3-Amino-propyl)-benzenesulfonylamino]-thiophene-2-carbonyl}-amino)-5-guanidino-pentanoic acid]
> 4.70 | Cn1nc(CNc2cccc(S(=O)(=O)Nc3ccsc3C(=O)N[C@@H](CCCNC(=N)N)C(=O)O)c2)c2ccccc21 [EG00319, (S)-5-Guanidino-2-[(3-{3-[(1-methyl-1H-indazol-3-ylmethyl)-amino]-benzenesulfonylamino}-thiophene-2-carbonyl)-amino]-pentanoic acid]
> 4.70 | N=C(N)NCCC[C@H](NC(=O)c1sccc1NS(=O)(=O)c1cccc(CCc2cccnc2)c1)C(=O)O [EG00323, (S)-5-Guanidino-2-({3-[3-(2-pyridin-3-yl-ethyl)-benzenesulfonylamino]-thiophene-2-carbonyl}-amino)-pentanoic acid]
> 4.70 | CN1CCOc2cc(-c3cc4c(c(S(=O)(=O)Nc5ccsc5C(=O)N[C@@H](CCCNC(=N)N)C(=O)O)c3)OCC4)cnc21 [EG00475, (S)-5-Guanidino-2-({3-[5-(4-methyl-3,4-dihydro-2H-pyrido[3,2-b][1,4]oxazin-7-yl)-2,3-dihydro-benzofuran-7-sulfonylamino]-thiophene-2-carbonyl}-amino)-pentanoic acid]

What follows are molecules tested on DU145 cancer cells (assay: Cell-matrix adhesion (Innocyte ECM cell adhesion assay)). Conditions: concentrations from 10-100 μM.
Assay type: cell-based, Human
Experimental: as §1
Cell adhesion to extracellular matrix proteins (basement membrane protein complex, laminin I, collagen IV, fibronectin or vitronectin) was measured by the Innocyte ECM cell adhesion assay (Calbiochem). Cells were detached with a non-enzyme cell dissociation solution (Sigma), washed and resuspended in RPMI 1640 medium. Cells with or without peptidomimetic treatment were seeded at 3×10^4 cells per matrix-coated well of 96-well plates. After 1.5 h incubation, cells were washed with PBS. The attached cells were labelled with the green fluorescent dye calcein-AM and measured using a fluorescence plate reader at an excitation wavelength of 485 nm and an emission wavelength of 520 nm.

SMILES | inhibiting the adhesion of DU145 cancer cells to extracellular matrix proteins
N=C(N)NCCC[C@H](NC(=O)c1sccc1NS(=O)(=O)c1ccc(N)cc1)C(=O)O [EG00144, (S)-2-{[3-(4-Amino-benzenesulfonylamino)-thiophene-2-carbonyl]-amino}-5-guanidino-pentanoic acid] | effective

What follows are molecules tested on A549 cells (assay: Cell migration (chemotaxis transwell)). Conditions: concentrations from 10-100 μM.
Assay type: cell-based, Human
Experimental: as §1
(§2) Cell migration was measured in chemotaxis 24-transwell plates with collagen 1-coated inserts. The various concentrations of serum in RPMI 1640/0.1% BSA were placed in the bottom wells of the plates, while top inserts incorporating PET (polyethylene terephthalate) track-etched membranes with 8 micron pores (Becton Dickinson Biosciences) were placed over the bottom wells. Cells were trypsinised, washed and resuspended in RPMI 1640/0.1% BSA. 1.5×10^6 cells with or without peptide or peptidomimetic treatment as indicated were loaded into each top inserts, and the chemotaxis trans-well plates were incubated at 37° C. for 4 h. After the incubation, non-migrated cells on the top side of the trans-well membranes were removed, and migrated cells on the under side of the trans-well membranes were stained with the REASTAIN Quick-Diff kit (REAGENA). The stained cells from each well were counted in 4 fields at ×100 magnification using an eyepiece indexed graticule (100 grids).

SMILES | migration of A549 cells
N=C(N)NCCC[C@H](NC(=O)c1sccc1NS(=O)(=O)c1ccc(N)cc1)C(=O)O [EG00144, (S)-2-{[3-(4-Amino-benzenesulfonylamino)-thiophene-2-carbonyl]-amino}-5-guanidino-pentanoic acid] | decreased migration

What follows are molecules tested on ACHN cells (assay: Cell migration (chemotaxis transwell)). Conditions: concentrations from 10-100 μM.
Assay type: cell-based, Human
Experimental: as §1, §2

SMILES | migration of ACHN cells
N=C(N)NCCC[C@H](NC(=O)c1sccc1NS(=O)(=O)c1ccc(N)cc1)C(=O)O [EG00144, (S)-2-{[3-(4-Amino-benzenesulfonylamino)-thiophene-2-carbonyl]-amino}-5-guanidino-pentanoic acid] | decreased migration
